Assays:
human IgG = assay: Screening of peptides immobilized on POROS-Aldehyde resin for binding of IgG; conditions: for Selectivity of IgG binding: immobilized peptide, IgG from human plasma; for Affinity for IgG: immobilized peptides from proteolytic digests
Description: Identifying Peptide Epitopes with Affinity for IgG. Peptide epitopes with high affinity for IgG may be derived readily from combinatorial libraries and proteolytic digests of protein mixtures. Proteolytic digests of Protein G were immobilized on POROS-Aldehyde resin by Schiff base coupling at their N-termini and the peptides screened for their ability to bind IgG from human plasma. […] In all, four peptides showing high affinity for IgG were isolated from protein G digests by this method. Similar peptides with high affinity for human IgG were also isolated and characterized from cytochrome c ([…]) (SEQ ID NO: 6) and mouse anti-human polyclonal IgG digests ([…]) (SEQ ID NO: 7) using this method. […] Without being bound by theory, it is believed herein that because ethylene glycol assists elution, some hydrophobic effects may also be involved.

IgG = assay: HP-SEC of IgG with free Protein A or Protein G: complex formation and agitation-induced aggregation; format: physicochemical; conditions: IgG:Protein A or G ratio 1:4, RT 2 h
Experimental: Effect of proteins A and G on aggregation of IgG. High performance size exclusion chromatography (HP-SEC) is used to verify that IgG binds with Protein A or Protein G completely. 50 µL aliquots are injected to a Tosoh TSK G 13000 SWXL Gel 3000 column ([…]×7.8 mm) and separated at a flow rate of 0.5 mL/min. The mobile phase contains 50 mM potassium phosphate and 100 mM K2SO4 at pH 7.1. The relative percentage of IgG monomer and dimer are calculated in triplicate as a percentage of the total chromatographic peak area at 280 nm. Fresh IgG is incubated with free Protein A or free Protein G, respectively, at IgG:Protein A or G ratio of 1:4 at RT for 2 h before being subjected to agitation. […] Effect of agitation of protein A and protein G complexes of IgG. The prior Example 1 is repeated, subjecting the IgG+Protein A or IgG+Protein G to agitation on a shaker at room temperature for 44 h.

Substance	Selectivity of IgG binding (human IgG)	Affinity for IgG (human IgG)	further results
TVTEKVIDASELTPAVT (listed as Staphylococcus aureus) [peptide from proteolytic digest of Protein G]	comparable to Protein A	–	–
GAQGHVVEK (listed as Staphylococcus aureus) [peptide isolated from mouse anti-human polyclonal IgG digests]	–	high affinity	–
Protein A: free Protein A, immunoglobulin-binding protein used as polyamino acid ligand	–	–	Complex formation with IgG by HP-SEC (IgG): formation of IgG-Protein A and IgG-Protein G complexes
TVTEKPEV (listed as Staphylococcus aureus) [peptide from proteolytic digest of Protein G]	comparable to Protein A	–	Binding constant for human IgG (human IgG; by HPLC methods): ~1e+06 M⁻¹
CAQCHTVEK (listed as Staphylococcus aureus) [peptide isolated from cytochrome c digest]	–	high affinity	–
